Assay [1] addresses T1, HXYN2 (Humicola insolens, UniProt P55334).
T1 construct: made in house; host or cells: Pichia pastoris GS115 (vector pHIL-D2), purified from culture supernatant
As to the kind of experiment: Effect of phenolic compounds on HXYN2 activity (DNS xylanase assay). As to conditions: for activating effect on HXYN2 activity: after 0 and 24 h of incubation. The class given is biochemical, Humicola grisea var. thermoidea.

Assay [2] addresses T1, HXYN2. The assay can be described thus: Fluorescence quenching of HXYN2 by FA. Type of assay: binding, Humicola grisea var. thermoidea. The note with it: range, acidic to basic pH. How it is done:
HXYN2 in complex with FA was investigated by fluorescence quenching as a function of pH. Trp and Trp-Tyr emission measurements were performed at 25 °C, in triplicate, after excitation at 295 nm and 275 nm, respectively. Protein fluorescence emission was recorded in the range of 300 to 450 nm. A path length quartz cuvette of 1 cm and excitation and emission slit width of 5 nm were employed. Data intervals of 1 nm, gain medium, a response time of 2 s, and a scanning speed of 50 nm/min were used with two averaged spectra accumulations. Fluorescence quenching of 0.43 µM HXYN2 with 0 to 23.68 µM FA in 95% ethanol and 0.05 M of sodium acetate buffer at pH 4.0 and 0.05 M of Tris–HCl at pH 7.0 and pH 9.0 was performed using a Jasco ATS-443 Automatic titration (Jasco Analytical Instrument, Tokyo, Japan). The fluorescence intensity background and dilution were corrected. The Stern–Volmer linear regression (Eq. 4) of the relative […] of fluorescence intensity at 334 nm (F/F0) versus FA concentration was used to describe the fluorescence quenching of Trp accessible to the quencher[52]:4 F0/F=1+Kq∗τ0Q=1+KSVQ where F and F0 are the fluorescence intensities at 334 nm, in the presence and absence of FA, respectively, Q is the concentration of the quencher, and Ksv is the Stern–Volmer constant. […]

For assay [3], the system named is HXYN2. As to the kind of experiment: CD thermal unfolding of HXYN2 in the presence of FA. Details: species or system Humicola grisea var. thermoidea. The note with it: pH 6.0, FA 60 µM; 63.5 °C without FA. How it is done:
Thermostability assays of HXYN2 were performed at pH 4.0, 6.0, 7.0 and 9.0 at 218 nm, corresponding to the structured region of β-sheet, with temperature ranging from 25 to 95 °C and data collection of 0.2 °C/min. In addition, the CD spectra were recorded at a step size of 0.2 nm at intervals of 10 °C using the same parameters described above. Thermal denaturation curves were plotted considering the molar ellipticity values (θ) versus temperature. The unfolded status of the protein (Fu) was calculated by Eq. (6):6 Fu=yN-y/yN-yU where, yN and yU represent the values of y (into molar ellipticity) characteristic of the folded and unfolded states, respectively. The normalized unfolding curves were adjusted using the Boltzmann equation and the Origin 8.1 software (OriginLab Corporation, Northampton, MA, USA) from which the melting temperature (Tm) was estimated.
The effect of FA on the secondary structure content of HXYN2 was also investigated by CD. Assays were performed with protein at concentration of 0.15 mg/mL in 5 mM Bis–Tris pH 6.0 and FA at concentration of 60 µM. A quartz cuvette of 0.05 cm path length was used to record the Far-UV CD spectra in the range from 260 to 190 nm at 25 °C. Thermostability assays of HXYN2 in the presence of FA at pH 6.0 were also performed, using the same parameters described above.

Assay [4] deals with HXYN2.
Assay [5] addresses T1, HXYN2. As to the kind of experiment: Isothermal titration calorimetry of HXYN2 with FA. The class given is binding, Humicola grisea var. thermoidea. How it is done: An initial spacing setting of 500 s and an initial injection of 2 µL were employed. The following 12 injections of 5 µL were performed with an interval spacing of 600 s. The final 16 injections comprised 10 µL, with an interval spacing of 600 s.
The heat released after each injection was calculated from the raw data by integration of the peaks after subtraction of the baseline. The binding isotherms were fitted to different models using the software ORIGIN v7 (OriginLab, Northampton, MA, USA) provided by MicroCal. The best fit was determined using only two parameters, namely the binding constant (K) and enthalpy (H) on each site, following selction of the total number of sites. […] Changes in Gibbs free energy (ΔG) were calculated by Eq. (3):3 ΔG=-RTlnKa=ΔH-TΔS
Background: In ITC the heat of successive injections is recorded.

The test system of assay [6] is fungal cellulases and β-glucosidase. Details: method as in PMID 22112771. As to conditions: cited from earlier work.
Assay [7] has as its system GH11 xylanase from Aspergillus tamarii. As to conditions: birchwood xylan as a substrate; cited from earlier work.
In assay [8] the test system is GH10 xylanase from Penicillium chrysogenum. Details: method as in PMID 30654038. As to conditions: oat spelt xylan as a substrate; cited from earlier work.

The values that follow come from article PMC9259647 (Scientific Reports, 2022).

One may read the Vmax as the top rate of the reaction or transport when substrate is in excess. For orientation: kcat means the number of substrate molecules converted per active site and unit of time at saturation. A word on the Kd: it is a measure of binding affinity in units of concentration. Read a low Kd as higher affinity.

Like-named read-outs stand apart in the source and are kept apart here.

T1 sequence (P55334 20-227): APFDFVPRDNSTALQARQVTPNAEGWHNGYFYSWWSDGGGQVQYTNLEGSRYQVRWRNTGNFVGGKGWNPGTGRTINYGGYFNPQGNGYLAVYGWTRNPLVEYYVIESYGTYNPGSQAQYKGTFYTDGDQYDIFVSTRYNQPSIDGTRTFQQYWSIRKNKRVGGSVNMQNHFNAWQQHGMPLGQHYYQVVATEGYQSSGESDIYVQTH

Regarding `O=C(O)c1ccc(O)cc1` [4-hydroxybenzoic acid], the “activating effect on HXYN2 activity” value in assay [1] (1 mg/mL) is 20–75%.

For the compound `COc1cc(/C=C/C(=O)O)ccc1O` [FA, 3-(4-hydroxy-3-methoxy-phenyl-prop-2-enoic)], the “bimolecular quenching constant, Kq” value in assay [2] fell in the range of 3.2e+11 to 6.5e+11 M⁻¹ s⁻¹. Further, in assay [3], the “Tm of HXYN2 in the presence of FA” value was found to be 54.1 °C. The Vmax amounted to 56.71 ± 1.11 µmol/min in assay [4] (FA 0.25 mg/mL), 117.21 ± 1.26 µmol/min in assay [4] (FA 0.5 mg/mL) and 167.22 ± 8.12 µmol/min in assay [4] (FA 1 mg/mL). For the same compound, the kcat in assay [4] (FA 0.25 mg/mL) was determined as 2.363 s⁻¹; in assay [4] (FA 0.5 mg/mL), 4.8837 s⁻¹; in assay [4] (FA 1 mg/mL) it was 6.9678 s⁻¹. Also, the Kd is approximately 2500 nM in assay [5] (Kd, binding sites 2 and 4); 68 to 2320 nM in assay [5] (dissociation constant (Kd), range over four sites). Also, the “K (binding constant)” value in assay [5] (binding site 1, pH 6.0, 298 °K) is given as 14.70 10^6 M^-1. Also, the binding constant in assay [5] (binding sites 2 and 4) is reported as ~ 0.4 × 10^6 M^−1. The compound further gave a Gibbs free energy in assay [5] (range over four sites) of −5.5 to −10.0 kcal/mol. In addition, the “increase in enzymatic activity of HXYN2 in comparison to the control” value in assay [1] (1 mg/mL, 0 and 24 h of incubation, beechwood xylan) is 60–75%. Moreover, the activation at 1000 µg/mL in assay [1] (24 h, read-out: activating effect on HXYN2, after 24 h of incubation) is approximately 75%; in assay [1] (read-out: activating effect on HXYN2 activity, 1 mg/mL, after 0 and 24 h of incubation), 20 to 75%; in assay [1] (read-out: increase in enzymatic activity of HXYN2 in comparison to the control, 1 mg/mL, 0 and 24 h of incubation, beechwood xylan), 75%.

In the case of `O=C(O)c1cc(O)c(O)c(O)c1` [gallic acid], the “activating effect on HXYN2 activity” value in assay [1] (1 mg/mL) was 20–75%.

For the compound `O=C(O)/C=C/c1ccc(O)cc1` [p-coumaric acid], the “activating effect on HXYN2 activity” value in assay [1] (1 mg/mL) is reported as 20–75%.

For the compound `COc1cc(C=O)cc(OC)c1O` [syringaldehyde], the “activating effect on HXYN2 activity” value in assay [1] (1 mg/mL) is 20–75%.

For the compound `O=C(O)/C=C/c1ccccc1` [trans-cinnamic acid], the “activating effect on HXYN2 activity” value in assay [1] (1 mg/mL) is reported as 20–75%.

Take `COc1cc(C=O)ccc1O` [vanillin]: the “activating effect on HXYN2 activity” value in assay [1] (1 mg/mL) is listed as 20–75%.

Turning to tannic acid, in assay [6], the inhibition result was “up to 80%”. Further, in assay [7], the “increase in the activity” value is 12%. Also, the inhibitory effect in assay [8] is listed as 17%. Moreover, the “reduction in HXYN2 activity” value in assay [1] (1 mg/mL, pre-incubation 0 h) is 26%; in assay [1] (1 mg/mL, pre-incubation 24 h), 59%. The “deactivating effect on HXYN2” value in assay [1] (after 24 h of incubation) is given as approximately 59%.
